Patent publication US6887873B2, “Triazine derivatives and their application as antitelomerase agents” (Aventis Pharma S.A., priority 2001, dated 2005)
Values joined by “and” are separate entries in the source; they are usually repeats but may differ in a detail not shown here. Equal values may be shown once.

What was measured:
[1] = test system: G-quadruplex of oligonucleotide GGGTTAGGGTTAGGGTTAGGG (3.5 repeats of the human telomereic motif); test: G-quadruplex stabilizing activity, fluorescence Tm (FAM+DABCYL oligonucleotide); format: binding
Source text: The G-quadruplex stabilizing activity may be determined by a method using the formation of a complex with fluorescein of which the experimental protocol is described below.
All the nucleotides, modified or otherwise, were synthesized by Eurogentec SA, Seraing, Belgium. The oligonucleotide FAM+DABCYL carries the catalogue reference OL-0371-0802. It has the sequence: […] corresponding to 3.5 repeats of the human telomereic motif (strand rich in G). The fluorescein is attached to the 5′ end, the DABCYL to the 3′ end, by the chemical arms described by Eurogentec. The concentration of the samples is checked by spectrophotometry, recording the absorbance spectrum between 220 and 700 nm and using the molar extinction coefficient provided by the supplier.
All the experiments were carried out in a 10 mM sodium cacodylate buffer pH 7.6 containing 0.1 M lithium chloride (or sodium chloride). The absence of fluorescent contamination in the buffer was checked beforehand. The fluorescent oligonucleotide is added at the final concentration of 0.2 μM.
All the measurements of fluorescence were carried out on a Spex Fluorolog DM1B apparatus, using an excitation line width of 1.8 nm and an emission line width of 4.5 nm. The samples are placed in a microquartz cuvette of 0.2×1 cm. The temperature of the sample is controlled by an external water bath. The oligonucleotide alone was analysed at 20, 30, 40, 50, 60, 70 and 80° C. The emission spectra are recorded using an excitation wavelength of 470 nm. The excitation spectra are recorded using either 515 nm or 588 nm as emission wavelength. The spectra are corrected for the response of the instrument by reference curves. A high extinction (80-90%) of the fluorescence of fluorescein at room temperature is observed, in agreement with an intramolecular folding of the oligonucleotide at 20° C. in the form of a G-quadruplex, which induces juxtaposition of its 5′ and 3′ ends which are respectively linked to fluorescein and to DABCYL. This juxtaposition causes an already-described phenomenon of extinction of fluorescence which is used for “molecular beacons”.
An oligonucleotide stock solution at the strand concentration of 0.2 μM in 0.1 M LiCl, 10 mM cacodylate buffer, pH 7.6, is prepared beforehand, heated briefly at 90° C. and slowly cooled to 20° C., and then distributed in aliquots of 600 μl in the fluorescence cuvettes. 3 μl of water (for the control) or 3 μl of test product (stock at 200 μM, final concentration 1 μM) are then added and mixed. The samples are then allowed to incubate for at least 1 hour at 20° C. before each measurement. The use of longer incubation times (up to 24 hours) has no influence on the result obtained.
Each experiment allows the measurement of only one sample. The latter is first incubated at an initial temperature of 20° C., heated to 80° C. over 38 minutes, left for 5 minutes at 80° C. and then cooled to 20° C. over 62 minutes. During this time, the fluorescence is measured simultaneously at two emission wavelengths (515 nm and 588 nm) using 470 nm as excitation wavelength. A measurement is carried out every 30 seconds. The temperature of the water bath is recorded in parallel, and the fluorescence profile as a function of the temperature is reconstituted from these values. The fluorescence profiles are then normalized between 20° C. and 80° C., and the temperature for which the intensity of emission at 515 nm is the mean of those at high and low temperature is called Tm. Under these conditions, the Tm of the reference sample without addition of product is 44° C. in a lithium chloride buffer. This temperature is increased to more than 55° C. in a sodium chloride buffer. The addition of a G-quadruplex-stabilizing compound induces an increase in the Tm. This increase is judged to be significant if it is greater than 3°.

[2] = test system: human telomerease (HL60 cell extract); test: Antitelomerease activity: extension of oligonucleotide TS followed by PCR amplification, with HL60 extract; format: biochemical; conditions: read-out: TRAP IC50
Procedure: The antitelomerease biological activity is determined by the following experimental protocol:
The leukaemia line HL60 is obtained from ATCC (American Type Culture Collection, Rockville, USA). The cells are cultured in suspension in RPMI 1640 medium containing L-glutamine at 2 mM, penicillin 200 U/ml, streptomycin 200 μg/ml, gentamycin 50 μg/ml and supplemented with 10% heat-inactivated foetal calf serum.
An aliquot of 10^5 cells is centrifuged at 3000×G and the supernatant discarded. The cell pellet is resuspended by several successive pipettings in 200 μl of lysis buffer containing 0.5% CHAPS, 10 mM Tris-HCl, pH 7.5, 1 mM MgCl2, 1 mM EGTA, 5 mM β-mercaptoethanol, 0.1 mM PMSF and 10% glycerol and is stored in ice for 30 minutes. The lysate is centrifuged at 160,000×G for 20 minutes at 4° C. and 160 μl of supernatant are recovered. The proteins in the extract are assayed by the Bradford method. The extract is stored at −80° C.
The inhibition of the telomerease activity is determined by a protocol for extension of the oligonucleotide TS (^5′AATCGTTCGAGCAGAGTT^3′), in the presence of a cellular extract enriched in telomerease activity and compounds which are added at various concentrations (10, 1, 0.1 and 0.01 μM). The extension reaction is followed by a PCR amplification of the extension products with the aid of the oligonucleotides TS and CXext (^5′[…]^3′).
The reaction medium is prepared based on the following composition:
The oligonucleotides are obtained from Eurogentec (Belgium) and are stored at −20° C. at a stock concentration of 1 mg/ml in distilled water.
The reaction samples are assembled in 0.2 ml PCR tubes and one drop of paraffin oil is deposited on each of the reactions of the experiment before closing the tubes.
The reaction samples are then incubated in a Cetus 4800-type PCR apparatus under the following temperature conditions: • 15 minutes at 30° C., • 1 minute at 90° C., • followed by 30 cycles of, • 30 seconds at 94° C., • 30 seconds at 50° C., • and 1 minute 30 seconds at 72° C., • followed by a final cycle of 2 minutes at 72° C.
For each of the samples, an aliquot of 10 μl is pipetted under the oil layer and mixed with 5 μl of a loading buffer containing:
The samples are then analysed by electrophoresis on 12% acrylamide gel in a 1×TBE buffer for 1 hour at a voltage of 200 volts, with the aid of a Novex electrophoresis system.
The acrylamide gels are then dried on a sheet of Whatmann 3 mm paper at 80° C. for 1 hour.
The analysis and the quantification of the reaction products are carried out with the aid of an InstantImager apparatus (Pacard).
For each compound concentration tested, the results are expressed as percentage inhibition of the reaction and calculated from the untreated enzymatic control and from the enzyme-free sample (blank) according to the following formula: (compound value−blank value/enzymatic control value−blank value)×100.
The concentration of compound inducing a 50% inhibition of the telomerease reaction (IC50) is determined with the aid of a semilogarithmic graphical representation of the inhibition values obtained as a function of each of the compound concentrations tested.
A compound is considered to be active as an antitelomerease agent when the quantity inhibiting 50% of the telomerease reaction is in particular less than 5 μM.

Row | Structure (SMILES) | G4 delta Tm [1] | IC50 [2]
1 | Cc1cc(N)c2cc(Nc3nc(Nc4ccncc4)nc(Nc4ccccc4Cl)n3)ccc2n1 [Example 4] | 5.5 °C | 3000 nM
2 | Cc1cc(N)c2cc(Nc3nc(NCCN(C)C)nc(Nc4ccccc4Cl)n3)ccc2n1 [Example 5] | 2.0 °C | 2700 nM
3 | Cc1cc(N)c2cc(Nc3nc(NCCCN(C)C)nc(Nc4ccccc4Cl)n3)ccc2n1 [Example 6] | – | 3500 nM
4 | Cc1cc(N)c2cc(Nc3nc(Nc4ccccc4Cl)nc(NC4CCN(C)CC4)n3)ccc2n1 [Example 7] | 3.0 °C | 2400 nM
5 | Cc1cc(N)c2cc(Nc3nc(Nc4ccccc4Cl)nc(N4CCN(C)CC4)n3)ccc2n1 [Example 8] | 1.5 °C | 3200 nM
6 | Cc1cc(N)c2cc(Nc3nc(NCCCN(C)C)nc(Nc4ccc5nc(C)cc(N(C)C)c5c4)n3)ccc2n1 [Example 9] | 10.0 °C | 100 nM
7 | Cc1cc(N)c2cc(Nc3nc(Nc4ccncc4)nc(Nc4ccc5nc(C)cc(N)c5c4)n3)ccc2n1 [Example 10] | 8.9 °C | 360 nM
8 | Cc1cc(N)c2cc(Nc3nc(Nc4ccc5nc(C)cc(N)c5c4)nc(Nc4ccc5nc(C)cc(N(C)C)c5c4)n3)ccc2n1 [Example 11, 2,4-bis(4-amino-2-methylquinolin-6-yl)amino-6-(4-dimethylamino-2-methylquinolin-6-yl)amino-[1,3,5]triazine] | 11.4 °C | 160 nM
9 | Cc1cc(N)c2cc(Nc3nc(NCCCN(C)C)nc(Nc4ccc5nc(C)cc(N)c5c4)n3)ccc2n1 [Example 12] | 9.4 °C | 300 nM
10 | Cc1cc(N)c2cc(Nc3nc(Nc4ccc5nc(C)cc(N)c5c4)nc(NC4CCN(C)CC4)n3)ccc2n1 [Example 13] | 7.2 °C | 260 nM
11 | Cc1cc(N)c2cc(Nc3nc(Nc4ccc5nc(C)cc(N)c5c4)nc(N4CCN(C)CC4)n3)ccc2n1 [Example 14] | 4.4 °C | 210 nM
12 | Cc1cc(N)c2cc(Nc3nc(NCC4CCCN4)nc(Nc4ccc5nc(C)cc(N)c5c4)n3)ccc2n1 (stereo not shown) [Example 16] | 7.3 °C | 80 nM
13 | Cc1cc(N(C)C)c2cc(Nc3nc(NCC4CCCN4)nc(Nc4ccc5nc(C)cc(N(C)C)c5c4)n3)ccc2n1 (stereo not shown) [Example 22] | 2.7 °C | 340 nM
14 | Cc1cc(N(C)C)c2cc(Nc3nc(Nc4ccc5nc(C)cc(N(C)C)c5c4)nc(N4CCCC4)n3)ccc2n1 [Example 23] | 9.2 °C | 3000 nM
15 | Cc1cc(N)c2cc(Nc3nc(Nc4ccc5nc(C)cc(N)c5c4)nc(Oc4ccccc4)n3)ccc2n1 [Example 29, 2,4-bis(4-amino-2-methylquinolin-6-yl)amino-6-phenoxy-[1,3,5]triazine] | – | 320 nM and 470 nM
16 | Cc1cc(N)c2cc(Nc3nc(Nc4ccc5nc(C)cc(N)c5c4)nc(Nc4cccc5nn[nH]c45)n3)ccc2n1 [Example 61] | – | 360 nM
17 | Cc1cc(N)c2cc(Nc3nc(NCc4cccc5ccccc45)nc(Nc4ccc5nc(C)cc(N)c5c4)n3)ccc2n1 [Example 78] | – | 1500 nM

Row | Structure (SMILES) | G4 delta Tm [1] | IC50 [2]
18 | Cc1cc(N)c2cc(Nc3nc(Nc4ccc5ccccc5c4)nc(Nc4ccc5nc(C)cc(N)c5c4)n3)ccc2n1 [Example 79] | – | 3600 nM
19 | Cc1cc(N)c2cc(Nc3nc(NCCN4CCOCC4)nc(Nc4ccc5nc(C)cc(N)c5c4)n3)ccc2n1 [Example 80] | – | 1200 nM
20 | Cc1cc(N)c2cc(Nc3nc(NCc4cccc5cnccc45)nc(Nc4ccc5nc(C)cc(N)c5c4)n3)ccc2n1 [Example 81] | – | 1400 nM
21 | COc1cccc(Nc2nc(Nc3ccc4nc(C)cc(N)c4c3)nc(Nc3ccc4nc(C)cc(N)c4c3)n2)c1 [Example 82] | – | 1600 nM
22 | COCCNc1nc(Nc2ccc3nc(C)cc(N)c3c2)nc(Nc2ccc3nc(C)cc(N)c3c2)n1 [Example 84] | – | 2200 nM
23 | Cc1cc(N)c2cc(Nc3nc(Nc4ccc5nc(C)cc(N)c5c4)nc(Nc4nccc5ccccc45)n3)ccc2n1 [Example 87] | – | 1500 nM
24 | Cc1cc(N)c2cc(Nc3nc(Nc4ccc5nc(C)cc(N)c5c4)nc(Nc4ncccn4)n3)ccc2n1 [Example 94] | – | 940 nM
25 | Cc1cc(N)c2cc(Nc3nc(Nc4ccc5nc(C)cc(N)c5c4)nc(Nc4cccc5ncccc45)n3)ccc2n1 [Example 95] | – | 930 nM
26 | Cc1cc(N)c2cc(Nc3nc(Nc4ccc5ncccc5c4)nc(Nc4ccc5nc(C)cc(N)c5c4)n3)ccc2n1 [Example 96] | – | 480 nM
27 | Cc1cc(N)c2cc(Nc3nc(Nc4ccc5nc(C)cc(N)c5c4)nc(Nc4cccc5cccnc45)n3)ccc2n1 [Example 97] | – | 690 nM
28 | Cc1cc(N)c2cc(Nc3nc(Nc4ccc5nc(C)cc(N)c5c4)nc(Nc4ccc5c6c(cccc46)CC5)n3)ccc2n1 [Example 99] | – | 600 nM
29 | Cc1cc(N)c2cc(Nc3nc(Nc4ccc5nc(C)cc(N)c5c4)nc(Nc4cc5ccccc5cn4)n3)ccc2n1 [Example 100] | – | 450 nM
30 | Cc1cc2c(Nc3nc(Nc4ccc5nc(C)cc(N)c5c4)nc(Nc4ccc5nc(C)cc(N)c5c4)n3)cccc2cn1 [Example 101] | – | 810 nM
31 | CCOc1cc(Nc2nc(Nc3ccc4nc(C)cc(N)c4c3)nc(Nc3ccc4nc(C)cc(N)c4c3)n2)c2ncccc2c1 [Example 102] | – | 570 nM
32 | Cc1cc(N)c2cc(Nc3nc(Nc4ccc5nc(C)cc(N)c5c4)nc(Sc4ccc5ccccc5c4)n3)ccc2n1 [Example 116] | – | 1800 nM
33 | Cc1cc(N)c2cc(Nc3nc(Nc4ccc5nc(C)cc(N)c5c4)nc(Sc4ncccn4)n3)ccc2n1 [Example 121] | – | 400 nM and 360 nM
